The text below walks through data of patent publication US9573907B2, “2, 4-pyrimidine derivatives and use thereof” (SNU R&DB FOUNDATION, priority 2009, dated 2017).

Entries after “also recorded” stand apart in the source; their conditions may differ.

Chain of interaction of gp96 and AIMP1 (P08113 22-802): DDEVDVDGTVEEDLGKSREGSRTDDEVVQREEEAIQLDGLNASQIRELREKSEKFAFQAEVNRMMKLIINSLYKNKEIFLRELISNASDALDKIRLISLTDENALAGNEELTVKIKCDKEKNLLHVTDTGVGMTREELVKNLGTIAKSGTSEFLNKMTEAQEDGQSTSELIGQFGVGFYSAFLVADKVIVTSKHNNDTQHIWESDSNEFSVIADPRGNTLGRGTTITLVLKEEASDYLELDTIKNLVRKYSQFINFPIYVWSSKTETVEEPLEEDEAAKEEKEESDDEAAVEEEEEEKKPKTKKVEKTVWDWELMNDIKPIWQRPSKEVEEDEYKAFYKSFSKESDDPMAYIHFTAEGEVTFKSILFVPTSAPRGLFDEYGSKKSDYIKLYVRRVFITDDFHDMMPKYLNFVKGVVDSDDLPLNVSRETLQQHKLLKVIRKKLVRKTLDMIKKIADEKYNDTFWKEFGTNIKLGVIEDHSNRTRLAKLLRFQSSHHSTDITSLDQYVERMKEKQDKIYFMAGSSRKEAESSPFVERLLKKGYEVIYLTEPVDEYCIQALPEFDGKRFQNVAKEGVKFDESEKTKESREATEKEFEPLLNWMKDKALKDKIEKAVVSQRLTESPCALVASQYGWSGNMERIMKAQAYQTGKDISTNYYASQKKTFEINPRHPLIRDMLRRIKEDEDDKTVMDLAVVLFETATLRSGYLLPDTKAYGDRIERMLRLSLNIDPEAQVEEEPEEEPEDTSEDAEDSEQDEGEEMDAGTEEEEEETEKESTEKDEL

The subject of the first data set is gp96tm transgenic mice.
Test: not given
The conditions noted are these: 2-month intraperitoneal administration, 30 mg/kg. The protocol: Female gp96tm transgenic mice (Proc Natl Acad Sci USA. 2003 December 23; 100(26): 15824-15829) were bred and maintained at the animal center for pharmaceutical research, Seoul National University. We used age-matched, 12-26 weeks old mice in each experimental group. To suppress cell surface gp96 we used GPM1 compound. Dexamethasone and GPM1 were dissolved in 5% DMSO in phosphate-buffered saline (PBS) and control vehicle was 5% DMSO in PBS. Compounds were administered i.p. every 24 h for 2 months (30 mg/kg/day). Three groups of each 9 mice were examined. All procedures were conducted in accordance with the Guide for the Care and Use of Laboratory Animals, published by the Korean National Institute of Health.
Spleen and lymph node cell suspensions were prepared by grindling tissue through sterile mesh and erythrocytes were lysed with RBC lysis buffer (eBioscience, CA). For surface staining, antibodies were fluoresceinisothiocyanate (FITC)-, phycoerythrin (PE)-, PerCP-, or APC-conjugated. Antibodies used were CD4 (RM4-5, H129.12), CD8 (53-6,7), B220 (RA3-6B2), CD11b (M1/70), CD11c (HL3), CD44 (IM7), CD62L (MEL-14), CD69 (H1.2F3), CD25 (PC61.5), IgM (11/41), IgD (11-26C.2a) (BD Pharmingen, CA), MHC class II (M5/114.15.2), Foxp3 (FJK-16s) (eBioscience, CA), and gp96 (Santacruz, Calif.). After staining, cells were washed and analyzed on a FACS can flow cytometer using CellQuest software (BD Bioscience, Mountain View, Calif.).
Kidney tissue sections of gp96tm transgenic mice were fixed in 10% formaldehyde in PBS and dehydrated using an alcohol gradient. After paraffin infiltration, the tissues were sectioned using a microtome, stained with hematoxylin and eosin (H&E) and analyzed by light microscopy. For immunofluorescent staining, kidneys were sectioned with a cryostat. These cryosections were blocked with normal goat serum, stained with FITC-conjugated goat anti-mouse Ig (BD pharmingen, CA), and then observed by fluorescent microscopy.
The present inventors compared the effect of GPM1 with phosphate-buffered saline containing 5% DMSO and dexamethasone (Dex), an immunosuppressant of glucocorticoid family as negative and positive control, respectively. Each group consisted of age-matched nine female mice. […] After 2 month, the present inventors isolated MHC class II^+ splenocytes and lymph nodes from vehicle-, Dex-, and GPM1-treated mice and determined the portion of gp96^+ cells by flow cytometry.
As to `C[C@@H]1C[C@H]2[C@@H]3CCC4=CC(=O)C=C[C@]4(C)[C@@]3(F)[C@@H](O)C[C@]2(C)[C@@]1(O)C(=O)CO` [dexamethasone, reference compound], the “adverse effects / death during administration” value was “two of nine”.

The data set is the same for the next values; noted with them: mouse, in vivo, 30 mg/kg/day.
As to `C[C@@H]1C[C@H]2[C@@H]3CCC4=CC(=O)C=C[C@]4(C)[C@@]3(F)[C@@H](O)C[C@]2(C)[C@@]1(O)C(=O)CO` [dexamethasone, reference compound], the “total cell count (spleen)” value was 4.80 ± 2.38 × 10^5.

Still in this data set, the particulars now being: splenocytes, after 2 month, 30 mg/kg.
Regarding `C[C@@H]1C[C@H]2[C@@H]3CCC4=CC(=O)C=C[C@]4(C)[C@@]3(F)[C@@H](O)C[C@]2(C)[C@@]1(O)C(=O)CO` [dexamethasone, reference compound], the “percentages of gp96+ MHC class II+ cells” value is reported as approximately 25%.

The next data set concerns the target interaction of gp96 and AIMP1 (Mus musculus, UniProt P08113). Kind of data set: ELISA assay of gp96-AIMP1 interaction. To be noted: read-out: Inhibition rate (at 100 nM; %). The data set is classed as binding, murine. The protocol: FIGS. 1 to 9 represent suppression of cell surface gp96 by GPM1 reduces DC maturation and B220^+ population in gp96tm transgenic mice. (FIG. 1) Chemical structure of GPM1 (Formula 2) and negative control (NC1, Formula 16) used in this study. (FIG. 2) The dose-dependent effect of GPM1 or NC1 on the AIMP1-gp96 interaction using ELISA method as described. The indicated concentrations of the two compounds and biotin-conjugated murine gp96 were added to AIMP1 coated on the surface of microtiter wells, and gp96 bound to AIMP1 was detected with strepavidin-conjugated peroxidase. (FIG. 3) The binding of GPM1 to gp96 was examined by surface plasmon resonance (SPR). GPM1 at the indicated concentrations was injected to immobilized gp96 and the binding was measured using Biacore 3000. The response data were processed using data from a reference surface and buffer injections. Each concentration was tested in triplicate. (FIG. 4) RAW24.7 cells were treated with 10 μM GPM1 for 24 h. Cell lysates were immunoprecipitated with control IgG or anti-gp96 antibody and the immunoprecipitated proteins were immunoblotted with anti-KDELR1, antiAIMP1 and gp96 antibodies. WCL means whole cell lysate. (FIG. 5) Splenocytes isolated from C57BL/6 mice were treated with vehicle (5% DMSO in PBS), GPM1, or NC1 (10 μM, 24 h), stained for cell surface gp96, and followed by flow cytometry. (FIG. 6) AIMP1^+/+ or AIMP1^−/− mouse splenocytes (2×10^5 cells) were treated with vehicle, GPM1, or NC1 (10 μM, 24 h), fixed, and then co-cultured with WT bone marrow-derived DCs (1×10^4 cells) for 16 h. TNFα secreted from BMDCs was quantified by ELISA. (FIG. 7) Percentage of gp96^+ MHC class II^+ cell population in splenocytes from gp96tm transgenic female mice treated with vehicle (control) (n=9), GPM1 (n=9), and dexamethasone (n=7) at 30 mg/kg. (FIG. 8) Cell surface ICOSL of CD11b^+CD11c^+ (myeloid DCs), CD11b^−CD11c^+ (lymphoid DCs), and CD11b^+CD11c^− (macrophages) cell populations in splenocytes from gp96tm transgenic female mice treated with vehicle (n=9) and GPM1 (n=9) at 30 mg/kg. (FIG. 9) Percentage of B220^+, MHC class II^+, CD4^+, CD8^+, CD4 and CD8 double negative cell populations in splenocytes from gp96tm transgenic female mice treated with vehicle (n=9), GPM1 (n=9), and dexamethasone (n=7) at 30 mg/kg. Student t-test P values comparing GPM1-treated mice with control are indicated.
96-well plates (Maxisorp., F96; Nunc) were coated with 500 ng/well AIMP1 in PBS (pH 7.4). After washing, the remaining sites were blocked with PBS containing 1% BSA for 1 h. Binding of 10 ng/well biotin-conjugated gp96 was performed in Tris buffer (25 mM Tris, 10 mM NaCl and 0.4% Triton X-100). Each of the 6,580 compounds was added to the well at 100 nM and the plates were washed and incubated with HRP conjugated streptavidin in PBS containing 0.1% BSA and 0.1% Tween 20 for 30 min. The plates were washed, and then substrate was added to each well. The absorbance was monitored at 450 nm.
To identify chemicals that can affect membrane translocation of gp96, the present inventors employed the interaction of gp96 with AIMP1 as the screening target. For this screening, the present inventors chose 6,482 chemicals with different pharmacophore representing 150,000 different chemicals deposited in Korea Chemical Bank and identified the compounds that can inhibit the interaction of the two proteins. For the screening, the present inventors set up a modified ELISA method using recombinant AIMP1 and gp96 proteins as described in Experimental methods. Each of the tested compounds gave different effect on the interaction of the two proteins (FIG. 19). And the present inventors have selected 12 compounds that inhibited the interaction more than 95% of the control at 0.1 μM (Table 1). The present inventors obtained 1251 additional compounds derived from these 12 initial hits and tested them again for their activities against the gp96-AIMP1 interaction.
A general note: In an ELISA, binding on a coated surface is turned into a signal by an enzyme label.
In general, inhibition refers to the share of the control response that was lost under treatment. `COc1cc(OC)nc(Oc2ccncc2)n1` [Formula 11, 4,6-dimethoxy-2-(pyridin-4-yloxy)pyrimidine]: the inhibition at 0.1 µM is 95%. With `COC(=O)C(C)Oc1nc(C)c(Cl)c(OC)n1` (stereo not drawn) [Formula 3, methyl 2-(5-chloro-4-methoxy-6-methylpyrimidin-2-yloxy)propanoate], the inhibition at 0.1 µM is 97%. As for `CC(C)(C)Oc1cc(OC(C)(C)C)nc(Oc2cccnc2)n1` [Formula 12, 4,6-di-tert-butoxy-2-(pyridin-3-yloxy)pyrimidine], the inhibition at 0.1 µM worked out at 86%. Same read-out and setting: the result for `COc1cc(OC)nc(OC(C(=O)O)c2ccccc2)n1` (stereo not drawn) [Formula 7, 2-(4,6-dimethoxypyrimidin-2-yloxy)-2-phenylacetic acid] reads 99%.

For the molecule `COc1nc(OCc2ccccc2)nc(OC)c1C(N)=O` [Formula 9, 2-(benzyloxy)-4,6-dimethoxypyrimidine-5-carboxamide], the inhibition at 0.1 µM turned out to be 90%.

`COc1cc(OC)nc(O[C@@H](C(=O)O)c2ccccc2)n1` [Formula 8, (R)-2-(4,6-dimethoxypyrimidin-2-yloxy)-2-phenylacetic acid]: the inhibition at 0.1 µM was determined as 30%. On to `CC(C)(C)Oc1ncc(-c2ccccn2)c(OC(C)(C)C)n1` [Formula 13, 2,4-di-tert-butoxy-5-(pyridin-2-yl)pyrimidine], for which the inhibition at 0.1 µM is 86%. For the molecule `Oc1nc(Oc2ccc(F)c(C(F)(F)F)c2)cc(Oc2ccc(F)c(C(F)(F)F)c2)n1` [Formula 14, 4,6-bis(4-fluoro-3-(trifluoromethyl)phenoxy)pyrimidin-2-ol], the inhibition at 0.1 µM is 84%. With `COc1cc(OC)nc(OCc2ccccc2Cl)n1` [Formula 10, 2-(2-chlorobenzyloxy)-4,6-dimethoxypyrimidine], the inhibition at 0.1 µM turned out to be 76%.

Regarding `COC(=O)C(Oc1nc(OC)cc(OC)n1)c1cccs1` (stereo not drawn) [Formula 6, methyl 2-(4,6-dimethoxypyrimidin-2-yloxy)-2-(thiophen-2-yl)acetate], the inhibition at 0.1 µM came to 71%. Turning to `COC(=O)C(Oc1nc(OC)cc(OC)n1)c1ccc(Br)cc1` (stereo not drawn) [Formula 4, methyl 2-(4-bromophenyl)-2-(4,6-dimethoxypyrimidin-2-yloxy)acetate], the inhibition at 0.1 µM amounted to 94%. Consider `COC(=O)C(Oc1nc(OC)cc(OC)n1)C(C)C` (stereo not drawn) [Formula 5, methyl 2-(4,6-dimethoxypyrimidin-2-yloxy)-3-methylbutanoate], for which the inhibition at 0.1 µM came to 82%.

Regarding `COc1cc(OC)nc(Oc2cccnc2N)n1` [Formula 15, 3-(4,6-dimethoxypyrimidin-2-yloxy)pyridin-2-amine], the inhibition at 0.1 µM was 54%.

Another data set relates to HL-60 cell lines. In words: FACS analysis of gp96 on cell surface of HL-60 cell lines. The conditions noted are these: 1 mM, 24 hours. It counts as cell-based. Here is the method: FIG. 35 is a graph showing an FACS analysis result using gp96 antibody, on the amount of gp96 protein existing on a cell surface, when HL-60 cell lines were treated with a 2,4-pyrimidine derivatives at a concentration of 1 mM for 24 hours.
Also, HL-60 cell lines were treated with a 2,4-pyrimidine derivative at a concentration of 1 mM for 24 hours, and the amount of gp96 protein existing on a cell surface was analyzed through flow cytometry (FACS) using gp96 antibody.
(A flow cytometer gives signals particle by particle.)
As to `COc1cc(OC)nc(OC(C(=O)O)c2ccccc2)n1` (stereo not drawn) [KR-S-017, (4,6-Dimethoxy-pyrimidin-2-yloxy)-phenyl-acetic acid], the “amount of gp96 protein existing on a cell surface” value (shortened to “amount of gp96 protein existing”) is reported as “better effects than KR-S-015”. As to `COC(=O)[C@@H](C)Oc1nc(OC)cc(OC)n1` [KR-S-012, D-2-(4,6-Dimethoxy-pyrimidin-2-yloxy)-propionic acid methyl ester], the “amount of gp96 protein existing” value was “better effects than KR-S-015; also recorded: better than isopropyl (KR-S-009, KR-S-010)”.

Consider `COc1cc(OC)nc(O[C@@H](C)C(=O)O)n1` [KR-S-024, L-2-(4,6-Dimethoxy-pyrimidin-2-yloxy)-propionic acid], for which the “amount of gp96 protein existing” value is listed as “better effects than KR-S-015; also recorded: better than isopropyl (KR-S-009, KR-S-010)”. With `COC(=O)CC(C)Oc1nc(OC)cc(OC)n1` [KR-S-014, D-3-(4,6-Dimethoxy-pyrimidin-2-yloxy)-butyric acid methyl ester], the “amount of gp96 protein existing” value is listed as “better effects than KR-S-015”.

`COc1cc(OC)nc(OC(C(=O)O)C(C)C)n1` (stereo not drawn) [KR-S-009, 2-(4,6-dimethoxy-pyrimidin-2-yloxy)-3-methyl-butyric acid]: the “amount of gp96 protein existing” value is given as “better effects than KR-S-015”. For `COc1cc(OC)nc(OC(C(=O)N2CCCCC2)C(C)C)n1` (stereo not drawn) [KR-S-007, 2-(4,6-dimethoxy-pyrimidin-2-yloxy)-3-methyl-1-piperidin-1-yl-butan-1-one], the “amount of gp96 protein existing” value is recorded as “better effects than KR-S-015; also recorded: better than ester (KR-S-010) or acid (KR-S-009)”. In the case of `COC(=O)[C@H](C)Oc1nc(OC)cc(OC)n1` [KR-S-011, L-2-(4,6-Dimethoxy-pyrimidin-2-yloxy)-propionic acid methyl ester], the “amount of gp96 protein existing” value was “better effects than KR-S-015; also recorded: better than isopropyl (KR-S-009, KR-S-010)”. Consider “2-(4,6-dimethoxy-pyrimidin-2-yloxy)-N-isopropyl-3-methyl-butyl amide [KR-S-005]”, for which the “amount of gp96 protein existing” value is listed as “better effects than KR-S-015; also recorded: better than ester (KR-S-010) or acid (KR-S-009)”.
